Consider 17 compounds from patent publication US8088815B2, “Spiroindolinone pyrrolidines” (Hoffman-La Roche Inc., priority 2009, dated 2012).

What is called IC50 is the concentration at which inhibition is half-maximal.

This experiment concerns the target interaction between p53 and MDM2 proteins (Homo sapiens, UniProt Q00987). The experiment is described as follows: HTRF assay of inhibition of the p53-MDM2 interaction (GST-MDM2 / biotinylated p53 peptide). The format is binding. Conditions: recombinant GST-tagged MDM2 and biotinylated p53 peptide, bsa:0.02%.

Chain of interaction between p53 and MDM2 proteins (Q00987 whole entry): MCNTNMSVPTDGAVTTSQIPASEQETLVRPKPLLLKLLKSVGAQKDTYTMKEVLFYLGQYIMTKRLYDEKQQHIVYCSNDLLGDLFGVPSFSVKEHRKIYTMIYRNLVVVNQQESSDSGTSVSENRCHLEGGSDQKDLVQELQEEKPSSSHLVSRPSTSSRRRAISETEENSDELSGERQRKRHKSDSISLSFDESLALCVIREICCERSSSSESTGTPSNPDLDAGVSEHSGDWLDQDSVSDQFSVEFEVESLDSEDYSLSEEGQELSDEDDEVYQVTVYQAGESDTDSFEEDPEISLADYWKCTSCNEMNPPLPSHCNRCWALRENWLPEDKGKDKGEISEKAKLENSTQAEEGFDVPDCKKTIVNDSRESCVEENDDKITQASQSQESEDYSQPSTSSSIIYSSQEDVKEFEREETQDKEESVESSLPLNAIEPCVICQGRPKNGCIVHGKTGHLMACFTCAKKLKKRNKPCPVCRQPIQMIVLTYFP

On to `COc1cc(C(=O)O)ccc1NC(=O)[C@@H]1N[C@@H](CC(C)(C)C)[C@@]2(C(=O)Nc3cc(Br)ccc32)[C@H]1c1cccc(Cl)c1F` (racemic) [Example 123, rac-4-{[(2′S,3′R,4′S,5′R)-6-bromo-4′-(3-chloro-2-fluoro-phenyl)-2′-(2,2-dimethyl-propyl)-2-oxo-1,2-dihydro-spiro[indole-3,3′-pyrrolidine]-5′-carbonyl]-amino}-3-methoxy-benzoic acid], for which the IC50 worked out at 6 nM.

With `COc1cc(CC(=O)OC(C)(C)C)ccc1NC(=O)[C@@H]1N[C@@H](CC(C)(C)C)[C@@]2(C(=O)Nc3cc(Cl)ccc32)[C@H]1c1cccc(Cl)c1F` [Example 159, chiral (4-{[(2′S,3′R,4′S,5′R)-6-chloro-4′-(3-chloro-2-fluoro-phenyl)-2′-(2,2-dimethyl-propyl)-2-oxo-1,2-dihydro-spiro[indole-3,3′-pyrrolidine]-5′-carbonyl]amino}-3-methoxy-phenyl)-acetic acid tert-butyl ester], the IC50 was found to be 14 nM.

As to `COC(=O)c1cc(OC)c(NC(=O)[C@@H]2N[C@@H](CC(C)(C)C)[C@@]3(C(=O)Nc4cc(Cl)ccc43)[C@H]2c2cccc(Cl)c2F)cc1F` (racemic) [Example 214, rac-4-{[(2′S,3′R,4′S,5′R)-6-chloro-4′-(3-chloro-2-fluoro-phenyl)-2′-(2,2-dimethyl-propyl)-2-oxo-1,2-dihydro-spiro[indole-3,3′-pyrrolidine]-5′-carbonyl]amino}-2-fluoro-5-methoxy-benzoic acid methyl ester], the IC50 was 20 nM.

In the case of `COC(=O)c1ccc(NC(=O)[C@@H]2N[C@@H](CC(C)(C)C)[C@@]3(C(=O)Nc4cc(Cl)ccc43)[C@H]2c2cc(F)cc(Cl)c2)c(OC)c1` (racemic) [Example 124, rac-4-{[(2′S,3′R,4′R,5′R)-6-chloro-4′-(3-chloro-5-fluoro-phenyl)-2′-(2,2-dimethyl-propyl)-2-oxo-1,2-dihydro-spiro[indole-3,3′-pyrrolidine]-5′-carbonyl]-amino}-3-methoxy-benzoic acid methyl ester], the IC50 was found to be 15 nM.

In the case of `CC(C)(C)C[C@@H]1N[C@@H](C(=O)Nc2ccc(C(=O)CO)cc2)[C@H](c2cccc(Cl)c2F)[C@]12C(=O)Nc1cc(Cl)ccc12` (racemic) [Example 42, rac-(2′S,3′R,4′S,5′R)-6-chloro-4′-(3-chloro-2-fluoro-phenyl)-2′-(2,2-dimethyl-propyl)-2-oxo-1,2-dihydro-spiro[indole-3,3′-pyrrolidine]-5′-carboxylic acid [4-(2-hydroxy-acetyl)-phenyl]-amide], the IC50 was 14 nM.

With `COC(=O)c1ccc(NC(=O)[C@@H]2N[C@@H](CC(C)(C)C)[C@@]3(C(=O)Nc4cc(Cl)ccc43)[C@H]2c2cccc(Cl)c2F)c(OC)c1` (racemic) [Example 109, rac-4-{[(2′S,3′R,4′S,5′R)-6-chloro-4′-(3-chloro-2-fluoro-phenyl)-2′-(2,2-dimethyl-propyl)-2-oxo-1,2-dihydro-spiro[indole-3,3′-pyrrolidine]-5′-carbonyl]amino}-3-methoxy-benzoic acid methyl ester], the IC50 came out at 11 nM.

With `COc1cc(CC(=O)O)ccc1NC(=O)[C@@H]1N[C@@H](CC(C)(C)C)[C@@]2(C(=O)Nc3cc(Cl)ccc32)[C@H]1c1cccc(Cl)c1F` [Example 160, chiral (4-{[(2′S,3′R,4′S,5′R)-6-chloro-4′-(3-chloro-2-fluoro-phenyl)-2′-(2,2-dimethyl-propyl)-2-oxo-1,2-dihydro-spiro[indole-3,3′-pyrrolidine]-5′-carbonyl]-amino}-3-methoxy-phenyl)-acetic acid], the IC50 worked out at 5 nM.

Regarding `CC(C)(C)C[C@@H]1N[C@@H](C(=O)Nc2ccc(I)cc2)[C@H](c2cccc(Cl)c2F)[C@]12C(=O)Nc1cc(Cl)ccc12` (racemic) [Example 56, rac-(2′S,3′R,4′S,5′R)-6-chloro-4′-(3-chloro-2-fluoro-phenyl)-2′-(2,2-dimethyl-propyl)-2-oxo-1,2-dihydro-spiro[indole-3,3′-pyrrolidine]-5′-carboxylic acid (4-iodo-phenyl)-amide], the IC50 is 19 nM.

For `CN(C)C(=O)c1ccc(NC(=O)[C@@H]2N[C@@H](CC(C)(C)C)[C@@]3(C(=O)Nc4cc(Cl)ccc43)[C@H]2c2cccc(Cl)c2F)cc1` (racemic) [Example 34, rac-(2′S,3′R,4′S,5′R)-6-chloro-4′-(3-chloro-2-fluoro-phenyl)-2′-(2,2-dimethyl-propyl)-2-oxo-1,2-dihydro-spiro[indole-3,3′-pyrrolidine]-5′-carboxylic acid (4-dimethylcarbamoyl-phenyl)-amide], the IC50 was determined as 18 nM.

Take `COc1cc(OCCO)ccc1NC(=O)[C@@H]1N[C@@H](CC(C)(C)C)[C@@]2(C(=O)Nc3cc(Cl)ccc32)[C@H]1c1cccc(Cl)c1F` [Example 134, chiral (2′S,3′R,4′S,5′R)-6-chloro-4′-(3-chloro-2-fluoro-phenyl)-2′-(2,2-dimethyl-propyl)-2-oxo-1,2-dihydro-spiro[indole-3,3′-pyrrolidine]-5′-carboxylic acid [4-(2-hydroxy-ethoxy)-2-methoxy-phenyl]-amide]: the IC50 was determined as 5 nM.

On to `CCOC(=O)c1csc(NC(=O)[C@@H]2N[C@@H](CC(C)(C)C)[C@@]3(C(=O)Nc4cc(Cl)ccc43)[C@H]2c2cccc(Cl)c2F)n1` (racemic) [Example 196, rac-2-{[(2′S,3′R,4′S,5′R)-6-chloro-4′-(3-chloro-2-fluoro-phenyl)-2′-(2,2-dimethyl-propyl)-2-oxo-1,2-dihydro-spiro[indole-3,3′-pyrrolidine]-5′-carbonyl]-amino}-thiazole-4-carboxylic acid ethyl ester], for which the 50% inhibitory concentration (IC50) is 50 nM.

As for `COC(=O)c1ccc(NC(=O)[C@@H]2N[C@@H](CC(C)(C)C)[C@@]3(C(=O)Nc4cc(Cl)ccc43)[C@H]2c2ccc(F)c(Cl)c2)c(OC)c1` (racemic) [Example 126, rac-4-{[(2′S,3′R,4′R,5′R)-6-chloro-4′-(3-chloro-4-fluoro-phenyl)-2′-(2,2-dimethyl-propyl)-2-oxo-1,2-dihydro-spiro[indole-3,3′-pyrrolidine]-5′-carbonyl]amino}-3-methoxy-benzoic acid methyl ester], the concentration for half-maximal inhibition (IC50) worked out at 29 nM.

For `COc1cc(C(=O)NC#N)ccc1NC(=O)[C@@H]1N[C@@H](CC(C)(C)C)[C@@]2(C(=O)Nc3cc(Cl)ccc32)[C@H]1c1cccc(Cl)c1F` [Example 223, chiral (2′S,3′R,4′S,5′R)-6-chloro-4′-(3-chloro-2-fluorophenyl)-N-(4-(cyanocarbamoyl)-2-methoxyphenyl)-2′-(2,2-dimethyl-propyl)-2-oxospiro[indoline-3,3′-pyrrolidine]-5′-carboxamide], the IC50 is 7 nM.

`COC(=O)c1cc2cc(NC(=O)[C@@H]3N[C@@H](CC(C)(C)C)[C@@]4(C(=O)Nc5cc(Cl)ccc54)[C@H]3c3cccc(Cl)c3F)ccc2s1` (racemic) [Example 212, rac-5-{[(2′S,3′R,4′S,5′R)-6-chloro-4′-(3-chloro-2-fluoro-phenyl)-2′-(2,2-dimethyl-propyl)-2-oxo-1,2-dihydro-spiro[indole-3,3′-pyrrolidine]-5′-carbonyl]amino}-benzo[b]thiophene-2-carboxylic acid methyl ester]: the IC50 was found to be 18 nM.

Take `CC(C)(C)C[C@@H]1N[C@@H](C(=O)Nc2ccc3sc(C(=O)O)cc3c2)[C@H](c2cccc(Cl)c2F)[C@]12C(=O)Nc1cc(Cl)ccc12` (racemic) [Example 213, rac-5-{[(2′S,3′R,4′S,5′R)-6-chloro-4′-(3-chloro-2-fluoro-phenyl)-2′-(2,2-dimethyl-propyl)-2-oxo-1,2-dihydro-spiro[indole-3,3′-pyrrolidine]-5′-carbonyl]amino}-benzo[b]thiophene-2-carboxylic acid]: the IC50 turned out to be 14 nM.

For the compound `CC(C)(C)C[C@@H]1N[C@@H](C(=O)Nc2ccc(CC(=O)O)cc2)[C@H](c2cccc(Cl)c2F)[C@]12C(=O)Nc1cc(Cl)ccc12` (racemic) [Example 220, rac-(4-{[(2′S,3′R,4′S,5′R)-6-chloro-4′-(3-chloro-2-fluoro-phenyl)-2′-(2,2-dimethyl-propyl)-2-oxo-1,2-dihydro-spiro[indole-3,3′-pyrrolidine]-5′-carbonyl]-amino}-phenyl)-acetic acid], the IC50 amounted to 15 nM.

For the compound `COc1cc(C(N)=O)ccc1NC(=O)[C@@H]1N[C@@H](CC(C)(C)C)[C@@]2(C(=O)Nc3cc(Cl)c(F)cc32)[C@H]1c1cccc(Cl)c1F` (racemic) [Example 113, rac-(2′S,3′R,4′S,5′R)-6-chloro-4′-(3-chloro-2-fluoro-phenyl)-2′-(2,2-dimethyl-propyl)-5-fluoro-2-oxo-1,2-dihydro-spiro[indole-3,3′-pyrrolidine]-5′-carboxylic acid (4-carbamoyl-2-methoxy-phenyl)-amide], the IC50 amounted to 9 nM.
